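These data come from cells grown in 96-well plates and exposed to compound for 48 hours at five concentrations. GI50 is the concentration that inhibits growth by half. At the TGI there is no net growth.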
Columns and labels:
Assay in all cases: NCI anticancer screen, dose series, 48 h
M14 melanoma = tested on: M14 melanoma
MCF7 breast = tested on: MCF7 breast
KM12 colon = tested on: KM12 colon
U251 CNS = tested on: U251 CNS
PC-3 prostate = tested on: PC-3 prostate
786-0 renal = tested on: 786-0 renal
A549 NSCLC = tested on: A549 NSCLC
CAKI-1 renal = tested on: CAKI-1 renal
OVCAR-8 ovarian = tested on: OVCAR-8 ovarian
OVCAR-4 ovarian = tested on: OVCAR-4 ovarian
UACC-257 melanoma = tested on: UACC-257 melanoma
SW-620 colon = tested on: SW-620 colon
UACC-62 melanoma = tested on: UACC-62 melanoma
UO-31 renal = tested on: UO-31 renal
HOP-62 NSCLC = tested on: HOP-62 NSCLC
RXF 393 renal = tested on: RXF 393 renal
HS 578T breast = tested on: HS 578T breast
NCI-H226 lung = tested on: NCI-H226 lung
HCT-15 colon = tested on: HCT-15 colon
MALME-3M melanoma = tested on: MALME-3M melanoma
ACHN renal = tested on: ACHN renal
SK-MEL-28 melanoma = tested on: SK-MEL-28 melanoma
T-47D breast = tested on: T-47D breast
HOP-92 NSCLC = tested on: HOP-92 NSCLC
SF-539 CNS = tested on: SF-539 CNS
SNB-19 CNS = tested on: SNB-19 CNS
SK-OV-3 ovarian = tested on: SK-OV-3 ovarian
IGROV1 ovarian = tested on: IGROV1 ovarian
NCI-H522 lung = tested on: NCI-H522 lung
NCI-H460 lung = tested on: NCI-H460 lung
SNB-75 CNS = tested on: SNB-75 CNS
HL-60(TB) leukemia = tested on: HL-60(TB) leukemia
HCC-2998 colon = tested on: HCC-2998 colon
SF-268 CNS = tested on: SF-268 CNS
SN12C renal = tested on: SN12C renal
NCI-H23 lung = tested on: NCI-H23 lung
HCT-116 colon = tested on: HCT-116 colon
HT29 colon = tested on: HT29 colon
SK-MEL-5 melanoma = tested on: SK-MEL-5 melanoma
CCRF-CEM leukemia = tested on: CCRF-CEM leukemia
LOX IMVI melanoma = tested on: LOX IMVI melanoma
OVCAR-5 ovarian = tested on: OVCAR-5 ovarian
COLO 205 colon = tested on: COLO 205 colon
A498 renal = tested on: A498 renal
DU-145 prostate = tested on: DU-145 prostate
SK-MEL-2 melanoma = tested on: SK-MEL-2 melanoma
MOLT-4 leukemia = tested on: MOLT-4 leukemia
MDA-MB-231 breast = tested on: MDA-MB-231 breast
TK-10 renal = tested on: TK-10 renal
BT-549 breast = tested on: BT-549 breast
RPMI-8226 leukemia = tested on: RPMI-8226 leukemia
SF-295 CNS = tested on: SF-295 CNS
MDA-MB-435 = tested on: MDA-MB-435
K-562 leukemia = tested on: K-562 leukemia
NCI/ADR-RES ovarian = tested on: NCI/ADR-RES ovarian
SR leukemia = tested on: SR leukemia
OVCAR-3 ovarian = tested on: OVCAR-3 ovarian

CN(CCO)C1CCN(c2ccc(Nc3ncc4c5ccnc(F)c5n(C5CCCC5)c4n3)nc2)CC1
GI50 (M14 melanoma): 11.7 µM | TGI (M14 melanoma): 32.8 µM | GI50 (MCF7 breast): 0.106 µM | TGI (MCF7 breast): 3.05 µM | GI50 (KM12 colon): 0.0514 µM | TGI (KM12 colon): 1.73 µM | GI50 (U251 CNS): 2.74 µM | TGI (U251 CNS): 7.5 µM | GI50 (PC-3 prostate): 8.47 µM | TGI (PC-3 prostate): 25.8 µM | GI50 (786-0 renal): 5.12 µM | TGI (786-0 renal): 26.9 µM | GI50 (A549 NSCLC): 2.27 µM | TGI (A549 NSCLC): 7.9 µM | GI50 (CAKI-1 renal): 4.44 µM | TGI (CAKI-1 renal): 21.3 µM | GI50 (OVCAR-8 ovarian): 14.7 µM | TGI (OVCAR-8 ovarian): 43.4 µM | GI50 (OVCAR-4 ovarian): 11.2 µM | TGI (OVCAR-4 ovarian): 27.7 µM | GI50 (UACC-257 melanoma): 17.6 µM | TGI (UACC-257 melanoma): 40 µM | GI50 (SW-620 colon): 0.184 µM | TGI (SW-620 colon): 2.21 µM | GI50 (UACC-62 melanoma): 16.7 µM | TGI (UACC-62 melanoma): 46 µM | GI50 (UO-31 renal): 1.86 µM | TGI (UO-31 renal): 20.9 µM | GI50 (HOP-62 NSCLC): 4.7 µM | TGI (HOP-62 NSCLC): 25.4 µM | GI50 (RXF 393 renal): 1.73 µM | TGI (RXF 393 renal): 16.8 µM | GI50 (HS 578T breast): 6.01 µM | TGI (HS 578T breast): 34.3 µM | GI50 (NCI-H226 lung): 16.3 µM | TGI (NCI-H226 lung): 55 µM | GI50 (HCT-15 colon): 3.01 µM | TGI (HCT-15 colon): 7.79 µM | GI50 (MALME-3M melanoma): 12.7 µM | TGI (MALME-3M melanoma): 34.5 µM | GI50 (ACHN renal): 1.98 µM | TGI (ACHN renal): 20.6 µM | GI50 (SK-MEL-28 melanoma): 12.3 µM | TGI (SK-MEL-28 melanoma): 28.9 µM | GI50 (T-47D breast): 17.5 µM | TGI (T-47D breast): 69.1 µM | GI50 (HOP-92 NSCLC): 11.6 µM | TGI (HOP-92 NSCLC): 28.8 µM | GI50 (SF-539 CNS): 4.6 µM | TGI (SF-539 CNS): 10.5 µM | GI50 (SNB-19 CNS): 2.47 µM | TGI (SNB-19 CNS): 33.8 µM | GI50 (SK-OV-3 ovarian): 11.1 µM | TGI (SK-OV-3 ovarian): 26 µM | GI50 (IGROV1 ovarian): 11.7 µM | TGI (IGROV1 ovarian): 30.8 µM | GI50 (NCI-H522 lung): 17.2 µM | TGI (NCI-H522 lung): 36.2 µM | GI50 (NCI-H460 lung): 0.99 µM | TGI (NCI-H460 lung): 2.44 µM | GI50 (SNB-75 CNS): 5.67 µM | TGI (SNB-75 CNS): 20.7 µM | GI50 (HL-60(TB) leukemia): 0.103 µM | TGI (HL-60(TB) leukemia): 8.05 µM | GI50 (HCC-2998 colon): 11.1 µM | TGI (HCC-2998 colon): 25.4 µM | GI50 (SF-268 CNS): 12.5 µM | TGI (SF-268 CNS): 30.9 µM | GI50 (SN12C renal): 12.2 µM | TGI (SN12C renal): 31.5 µM | GI50 (NCI-H23 lung): 7.76 µM | TGI (NCI-H23 lung): 32.3 µM | GI50 (HCT-116 colon): 1.85 µM | TGI (HCT-116 colon): 7.36 µM | GI50 (HT29 colon): 1.23 µM | TGI (HT29 colon): 4.45 µM | GI50 (SK-MEL-5 melanoma): 10.9 µM | TGI (SK-MEL-5 melanoma): 25.9 µM | GI50 (CCRF-CEM leukemia): 0.208 µM | TGI (CCRF-CEM leukemia): 3.59 µM | GI50 (LOX IMVI melanoma): 1.02 µM | TGI (LOX IMVI melanoma): 2.24 µM | GI50 (OVCAR-5 ovarian): 0.812 µM | TGI (OVCAR-5 ovarian): 20.7 µM | GI50 (COLO 205 colon): 0.0817 µM | TGI (COLO 205 colon): 18.5 µM | GI50 (A498 renal): 0.366 µM | TGI (A498 renal): 14.6 µM | GI50 (DU-145 prostate): 1.76 µM | TGI (DU-145 prostate): 3.18 µM | GI50 (SK-MEL-2 melanoma): 20.4 µM | TGI (SK-MEL-2 melanoma): 45.6 µM | GI50 (MOLT-4 leukemia): 0.0513 µM | TGI (MOLT-4 leukemia): 9.74 µM | GI50 (MDA-MB-231 breast): 6.01 µM | TGI (MDA-MB-231 breast): 24.2 µM | GI50 (TK-10 renal): 1.59 µM | TGI (TK-10 renal): 21.2 µM | GI50 (BT-549 breast): 13.1 µM | TGI (BT-549 breast): 31.4 µM | GI50 (RPMI-8226 leukemia): 0.184 µM | TGI (RPMI-8226 leukemia): 19.8 µM | GI50 (SF-295 CNS): 2.22 µM | TGI (SF-295 CNS): 20.2 µM | GI50 (MDA-MB-435): 5.84 µM | TGI (MDA-MB-435): 20.7 µM | GI50 (K-562 leukemia): 1.32 µM | TGI (K-562 leukemia): 4.08 µM | GI50 (NCI/ADR-RES ovarian): 15.3 µM | TGI (NCI/ADR-RES ovarian): 36 µM | GI50 (SR leukemia): 1.23 µM | TGI (SR leukemia): 4.61 µM | GI50 (OVCAR-3 ovarian): 14.9 µM | TGI (OVCAR-3 ovarian): 30.4 µM

Reference: PubChem BioAssay (NCI)
